Values joined by “and” are separate entries in the source; they are usually repeats but may differ in a detail not shown here. Equal values may be shown once. Read-outs that look alike come from different tables or passages of the source. Ends that are not written are not given here.
Columns and labels:
E-coli CCARM 1229 = assay: microbe, parasite or virus in culture; format: cell-based, Escherichia coli; details: E-coli CCARM 1229, antibiotic-resistant
Description: (§1) To investigate the antibacterial activity of the HPA3P2 peptide prepared by the method of Example 1, the inventors first measured the minimal inhibitory concentration (MIC) that is the minimum concentration of the peptide for the strain to remain as not-decomposed.
(§2) Particularly, to measure the antibacterial activity, the standard strains were obtained. For example, Gram-negative bacteria such as E. coli (KCTC 1682) and Pseudomonas aeruginosa (KCTC 1637), and Gram-positive bacteria such as Staphylococcus aureus (KCTC […]) and Bacillus subtilis (KCTC 1918) were provided from Gene Bank, Korea Research Institute of Bioscience & Biotechnology. In addition, a variety of the antibiotic-resistant strains such as Staphylococcus aureus (CCARM 3090, 3018, 3114, 3126) and E. coli (CCARM 1229, 1238) were distributed from the culture collection at Ewha Womans University. And Pseudomonas aeruginosa (1034, 3904, 4007, 4891) were obtained from the otitis media patients at Chonnam National University Hospital. Each strain was cultured in LB medium (1% bacto-trypton, 0.5% bacto-yeast extract, 1% NaCl; Sigma, USA) until the strain grew to mid-log phase. The strain was diluted with 1% bacto-peptone medium (Difco, USA) at the density of 5×10^5 cells/100 μl, which was then inoculated in micro-titrate plate (Nunc, USA). The peptide synthesized in Example 1 and the peptides in Table 1 were added to the plate (1/2 dilution from 96 well), followed by culture at 37° C. for 6 hours. OD620 was measured by using micro-titrate plate reader (Merck Elisa reader, Germany) to determine the MIC value of each strain.

E. coli CCARM 1238 = assay: microbe, parasite or virus in culture; format: cell-based, Escherichia coli; details: E. coli CCARM 1238, antibiotic-resistant
Description: as §1, §2

S. aureus CCARM 3018 = assay: microbe, parasite or virus in culture; format: cell-based, Staphylococcus aureus; details: S. aureus CCARM 3018, antibiotic-resistant
Description: as §1, §2

S. aureus CCARM 3090 = assay: microbe, parasite or virus in culture; format: cell-based, Staphylococcus aureus; details: S. aureus CCARM 3090, antibiotic-resistant
Description: as §1, §2

S. aureus CCARM 3114 = assay: microbe, parasite or virus in culture; format: cell-based, Staphylococcus aureus; details: S. aureus CCARM 3114, antibiotic-resistant
Description: as §1, §2

S. aureus CCARM 3126 = assay: microbe, parasite or virus in culture; format: cell-based, Staphylococcus aureus; details: S. aureus CCARM 3126, antibiotic-resistant
Description: as §1, §2

P. aeruginosa 1034 = assay: microbe, parasite or virus in culture; format: cell-based, Pseudomonas aeruginosa; details: P. aeruginosa 1034, antibiotic-resistant, from otitis media patients
Description: as §1, §2

P. aeruginosa 3904 = assay: microbe, parasite or virus in culture; format: cell-based, Pseudomonas aeruginosa; details: P. aeruginosa 3904, antibiotic-resistant, from otitis media patients
Description: as §1, §2

P. aeruginosa 4007 = assay: microbe, parasite or virus in culture; format: cell-based, Pseudomonas aeruginosa; details: P. aeruginosa 4007, antibiotic-resistant, from otitis media patients
Description: as §1, §2

P. aeruginosa 4891 = assay: microbe, parasite or virus in culture; format: cell-based, Pseudomonas aeruginosa; details: P. aeruginosa 4891, antibiotic-resistant, from otitis media patients
Description: as §1, §2

[1] = tested on: Bacillus subtilis (KCTC 1918); format: cell-based; details: 37° C., 6 hours, OD620
Description: as §1, §2

E. coli (KCTC 1682) = format: cell-based; details: Escherichia coli KCTC 1682; 37° C., 6 hours, OD620
Description: as §1, §2

[2] = tested on: Pseudomonas aeruginosa (KCTC 1637); format: cell-based; details: 37° C., 6 hours, OD620
Description: as §1, §2

[3] = tested on: Staphylococcus aureus (KCTC 1637); format: cell-based; details: 37° C., 6 hours, OD620
Description: as §1, §2

human erythrocytes = assay: Hemolytic activity; format: cell-based; details: for HC10 / HC50: human erythrocytes 8% in PBS, 37° C., 1 hour; for HC10: first value of HC10/HC50 cell; for HC50: second value of HC10/HC50 cell; for hemolytic activity: human erythrocytes, up to 800 μM peptide
Protocol: To investigate whether or not the peptide HPA3P2 that has the folding structure as prepared in Example 1 had cytotoxicity, the hemolytic activity of the peptide having the folding structure was measured.
Particularly, human erythrocytes were diluted in PBS (pH 7.0) at the concentration of 8%, to which the peptides represented by SEQ. ID. […] Then, centrifugation was performed at 1,000 g. Hemoglobin included in the supernatant was measured by measuring OD414. To compare and measure the level of cell destruction, 1% triton X-100 (Sigma, USA) was added to the human erythrocytes, and then OD of the supernatant was measured. The cell destruction capacity of the said 1% triton X-100 was considered as 100%, based on which the erythrocyte destruction capacity of each peptide including the peptide of the invention and the peptides listed in Table 1 was calculated by the below mathematical formula 1. % hemolysis=(ODA−ODB/ODC−ODB)×100 [Mathematical Formula 1] In the above mathematical formula 1, ODA is the OD of the peptide solution measured at 414 nm, and ODB is the OD of PBS measured at 414 nm, and ODC is the OD of 1% triton X-100 measured at 414 nm.

[4] = Cytotoxicity in normal cell line (MTT); format: cell-based, human; details: human, HaCaT cells (human keratinocyte cell line), read-out: EC50 (50% cytotoxicity inhibition concentration)
Protocol: (§3) To investigate whether or not the peptides prepared in Example 1 had cytotoxicity in normal cell line, the inventors investigated cytotoxicity in the human keratinocyte HaCaT cell line (Dr. N E. Fusenig, Heidelberg, Germany).
(§4) Particularly, human keratinocyte HaCaT cells were cultured in DMEM (Dulbecco's Modified Eagle's Medium) supplemented with 10% FBS (Fetal Bovine Serum), which were then distributed in a 96-well plate at the density of 2×10^4 cells/well, followed by further culture for 24 hours. The peptides prepared in Example 1 were treated at different concentrations, followed by reaction in a 5% CO2 incubator for 24 hours. Upon completion of the culture, 20 μl of phosphate buffered saline (PBS) wherein MTT (Thiazolyl Blue Tetrazolium Bromide) was dissolved at the concentration of 5 mg/ml was added to each well, followed by culture for 4 hours. The supernatant was discarded. Then, the generated MTT crystal was dissolved in 200 μl of DMSO. OD560 was measured.

[5] = tested on: human keratinocyte HaCaT cell line; assay: Cytotoxicity in normal cell line (MTT); format: cell-based; details: HaCaT cells, 24 hours
Protocol: as §3, §4

E. coli cells = assay: SYTOX-Green fluorescence intensity in E. coli; format: cell-based; details: E. coli 2×10^7 cells/ml, 1 μM SYTOX-Green, over time and peptide concentration
Protocol: The SYTOX-Green fluorescence and luminous intensity of the peptide prepared in Example 1 were measured over the time.
Particularly, E. coli cells were cultured in LB medium at 37° C. The cells were diluted in 10 mM sodium phosphate buffer at the density of 2×10^7 cells/ml. 1 μM of SYTOX-Green was treated to the cells, followed by reaction in a dark incubator for 15˜20 minutes. The comparative peptides (HPA3P(A) and Buporin-2(C)), and the experimental peptide HPA3P2(B) were treated at the minimum inhibition concentration. The increasing fluorescence intensity emitted from SYTOX-Green was measured (excitation wavelength: 484 nm, emission wavelength: 520 nm).

Molecule | MIC Bs [1] | MIC Ec (E. coli (KCTC 1682)) | MIC Pa [2] | MIC Sa [3] | MIC (S. aureus CCARM 3018) | MIC (S. aureus CCARM 3090) | MIC (S. aureus CCARM 3114) | MIC (S. aureus CCARM 3126) | MIC (E-coli CCARM 1229) | MIC (E. coli CCARM 1238) | MIC (P. aeruginosa 1034) | MIC (P. aeruginosa 3904) | MIC (P. aeruginosa 4007) | MIC (P. aeruginosa 4891) | HC10 (human erythrocytes) | HC50 (human erythrocytes) | hemolytic activity (human erythrocytes) | EC10 (10% cytotoxicity inhibition concentration) [5] | further results
CC1(C)S[C@@H]2[C@H](NC(=O)[C@H](N)c3ccccc3)C(=O)N2[C@H]1C(=O)O [Ampicillin] |  |  |  |  |  |  |  |  |  |  |  |  |  |  |  |  |  |  | MIC (E-coli CCARM 1229; Escherichia coli, CCARM1229, read-out: MIC): > 800 µM; MIC (E. coli CCARM 1238; Escherichia coli, CCARM1238, read-out: MIC): > 800 µM
CC[C@H]1OC(=O)[C@H](C)[C@@H](O[C@H]2C[C@@](C)(OC)[C@@H](O)[C@H](C)O2)[C@H](C)[C@@H](O[C@@H]2O[C@H](C)C[C@H](N(C)C)[C@H]2O)[C@](C)(O)C[C@@H](C)C(=O)[C@H](C)[C@@H](O)[C@]1(C)O [Erythromycin] |  |  |  |  |  |  |  |  |  |  |  |  |  |  |  |  |  |  | MIC (S. aureus CCARM 3018; Staphylococcus aureus, CCARM3018): > 800 µM; MIC (S. aureus CCARM 3090; Staphylococcus aureus, CCARM3090): > 800 µM; MIC (S. aureus CCARM 3114; Staphylococcus aureus, CCARM3114): > 800 µM; MIC (S. aureus CCARM 3126; Staphylococcus aureus, CCARM3126): > 800 µM
CCN1CCN(C(=O)N[C@@H](C(=O)N[C@@H]2C(=O)N3[C@@H]2SC(C)(C)[C@@H]3C(=O)O)c2ccccc2)C(=O)C1=O [Piperacillin] |  |  |  |  |  |  |  |  |  |  |  |  |  |  |  |  |  |  | MIC (P. aeruginosa 1034; Pseudomonas aeruginosa): > 400 µM; MIC (P. aeruginosa 3904; Pseudomonas aeruginosa): > 400 µM; MIC (P. aeruginosa 4007; Pseudomonas aeruginosa): > 400 µM; MIC (P. aeruginosa 4891; Pseudomonas aeruginosa): > 400 µM
AKKVFKRLPKLFSKIWNWK-NH2 [HPA3P, AKKVFKRLPKLFSKIWNWK-NH2] | 2 µM | 1 µM | 8 µM | 16 µM | 1 µM | 1 µM | 1 µM | 1 µM | 0.5 to 1 µM | 0.5 to 1 µM | 1 µM | 1 µM | 1 µM | 1 µM | >800/>800 μM | >800/>800 μM | not observed | 151.1 µM and 151.5 µM | EC50 at 24 h [4]: 381 µM
AKKVFKRLPKLPSKIWNWK-NH2 [HPA3P2, AKKVFKRLPKLPSKIWNWK-NH2] | >64 µM | 16 µM | 16 µM | >64 µM | 1 µM | 1 µM | 1 µM | 1 µM | 0.5 to 1 µM | 0.5 to 1 µM | 1 µM | 1 µM | 1 µM | 1 µM | >800/>800 μM | >800/>800 μM | not observed | 180.5 µM | 
buforin-2 |  |  |  |  |  |  |  |  |  |  |  |  |  |  |  |  |  |  | change of SYTOX-Green fluorescence intensity (E. coli cells): the fluorescence intensity is changed

Source: US9463214B2, “Antibiotic peptide derived from helicobacter pylori ribosomal protein L1 and uses thereof” (INDUSTRY-ACADEMIC COOPERATION FOUNDATION, CHOSUN UNIVERSITY, priority 2013, dated 2016)
